# Laboratory results published in patent US11279683B2, “Thiophene derivatives as antiviral agents” (ENYO PHARMA, priority 2016, dated 2022).
# Like-named read-outs stand apart in the source and are kept apart here.
# What was measured:
# [1] = system: H1N1 (influenza A/New Caledonia/20/99); test: microbe, parasite or virus in culture; format: cell-based
# p62 = p62 expression measurement; format: cell-based
# Excerpt: The autophagy-inducing effect has been assessed by LC3 lipidation assay and by p62 expression measurement.
# [2] = Influenza A virus, H1N1, A549, 48 h
Structure (SMILES),"IC50 [1, 2] [µM]",p62 expression* (p62),IC50 [1] [µM]
"O=C(Nc1ccc(Cl)cc1)c1c(NC(=O)C2CCCCC2C(=O)O)sc2ccccc12 (stereo not drawn) [Compound 41, 2-[[3-[(4-Chlorophenyl)carbamoyl]benzothiophen-2-yl]carbamoyl]cyclohexane carboxylic acid]",3.53,down,–
"O=C(Nc1ccc(Cl)cc1)c1c(NC(=O)C2CCCCC2C(=O)O)sc2c1CCC2 (stereo not drawn) [Compound 57, 2-[[3-[(4-Chlorophenyl)carbamoyl]-5,6-dihydro-4H-cyclopenta[b]thiophen-2-yl]carbamoyl]cyclohexane-cis-carboxylic acid]",–,down,7.18
"O=C(Nc1ccc(Cl)cc1)c1c(NC(=O)C2CCCCC2C(=O)O)sc2cscc12 (stereo not drawn) [Compound 42, 2-[[3-[(4-Chlorophenyl)carbamoyl]thieno[3,4-b]thiophen-2-yl]carbamoyl]cyclohexanecarboxylic acid]",3.08,down,–
"CCc1c(C)sc(NC(=O)C2CCCCC2C(=O)O)c1C(=O)Nc1ccc(Cl)cc1 (stereo not drawn) [Compound 59, 2-[[3-[(4-Chlorophenyl)carbamoyl]-4-ethyl-5-methyl-2-thienyl]carbamoyl]cyclohexanecarboxylic acid]",53.5,–,–
"O=C(NCC1CCCCC1)c1c(NC(=O)C2CCCCC2C(=O)O)sc2c1CCC2 (stereo not drawn) [Compound 24, 2-[[3-(Cyclohexylmethylcarbamoyl)-5,6-dihydro-4H-cyclopenta[b]thiophen-2-yl]carbamoyl]cyclohexanecarboxylic acid]",12.3,–,–
"O=C(Nc1ccc(Cl)c(C(F)(F)F)c1)c1c(NC(=O)C2CCCCC2C(=O)O)sc2c1CCC2 (stereo not drawn) [Compound 6, 2-[[3-[[4-Chloro-3-(trifluoromethyl)phenyl]carbamoyl]-5,6-dihydro-4H-cyclopenta[b]thiophen-2-yl]carbamoyl]cyclohexanecarboxylic acid]",4.68,–,–
"O=C(Nc1ccc(CCO)cc1)c1c(NC(=O)C2CCCCC2C(=O)O)sc2c1CCC2 (stereo not drawn) [Compound 9, 2-[[3-[[4-(2-Hydroxyethyl)phenyl]carbamoyl]-5,6-dihydro-4H-cyclopenta[b]thiophen-2-yl]carbamoyl]cyclohexanecarboxylic acid]",21.1,–,–
"O=C(Nc1cccc(C(F)(F)F)c1)c1c(NC(=O)C2CCCCC2C(=O)O)sc2c1CCC2 (stereo not drawn) [Compound 77, 2-[[3-[[3-(Trifluoromethyl)phenyl]carbamoyl]-5,6-dihydro-4H-cyclopenta[b]thiophen-2-yl]carbamoyl]cyclohexanecarboxylic acid]",6.78,–,–
"O=C(Nc1ccc(Cl)cc1)c1c(NC(=O)C2CCCCC2CO)sc2c1CCC2 (stereo not drawn) [Compound 56, N-(4-Chlorophenyl)-2-[[2-(hydroxymethyl)cyclohexanecarbonyl]amino]-5,6-dihydro-4H-cyclopenta[b]thiophene-3-carboxamide]",24,–,–
"CC(C)c1cc(C(=O)Nc2ccccc2)c(NC(=O)C2CCCCC2C(=O)O)s1 (stereo not drawn) [Compound 72, 2-[[5-Isopropyl-3-(phenylcarbamoyl)-2-thienyl]carbamoyl]cyclohexanecarboxylic acid]",9.92,–,–
"O=C(Nc1ccc(Cl)cc1)c1c(NC(=O)C2CC=CCC2C(=O)O)sc2c1CCC2 (stereo not drawn) [Compound 48, 6-[[3-[(4-Chlorophenyl)carbamoyl]-5,6-dihydro-4H-cyclopenta[b]thiophen-2-yl]carbamoyl]cyclohex-3-ene-1-carboxylic acid]",11.2,–,–
"O=C1CC(C(=O)Nc2sc3c(c2C(=O)Nc2ccc(Cl)cc2)CCC3)CCN1 (stereo not drawn) [Compound 101, N-[3-[(4-chlorophenyl)carbamoyl]-5,6-dihydro-4H-cyclopenta[b]thiophen-2-yl]-2-oxo-piperidine-4-carboxamide]",19,–,–
"O=C(Nc1ccc(Cl)cc1)c1c(NC(=O)C2CCCCC2C(=O)O)sc2c1CCS2 (stereo not drawn) [Compound 40, 2-[[4-[(4-Chlorophenyl)carbamoyl]-2,3-dihydrothieno[2,3-b]thiophen-5-yl]carbamoyl] cyclohexanecarboxylic acid]",7.35,–,–
"CC(C)c1ccc(NC(=O)c2c(NC(=O)C3CCCCC3C(=O)O)sc3c2CCC3)cc1 (stereo not drawn) [Compound 25, 2-[[3-[(4-Isopropylphenyl)carbamoyl]-5,6-dihydro-4H-cyclopenta[b]thiophen-2-yl]carbamoyl]cyclohexanecarboxylic acid]",4.68,–,–
"O=C(Nc1ccc(Cl)cc1)c1c(NC(=O)C2CCC(C(=O)O)CC2)sc2c1CCC2 (single isomer, unassigned) [Compound 97, 4-[[3-[(4-chlorophenyl)carbamoyl]-5,6-dihydro-4H-cyclopenta[b]thiophen-2-yl]carbamoyl]cyclohexanecarboxylic acid]",14.7,–,–
"O=C(O)C=CC(=O)Nc1sc2c(c1C(=O)Nc1ccc(Cl)cc1)CCC2 [Compound 43, 4-[[3-[(4-Chlorophenyl)carbamoyl]-5,6-dihydro-4H-cyclopenta[b]thiophen-2-yl]amino]-4-oxo-but-2-enoic acid]",33.2,–,–
"Cc1cncc(NC(=O)c2c(NC(=O)C3CCCCC3C(=O)O)sc3c2CCC3)c1 (stereo not drawn) [Compound 33, 2-[[3-[(5-Methyl-3-pyridyl)carbamoyl]-5,6-dihydro-4H-cyclopenta[b]thiophen-2-yl]carbamoyl]cyclohexanecarboxylic acid]",27.4,–,–
"NS(=O)(=O)N1CCOC(C(=O)Nc2sc3c(c2C(=O)Nc2ccc(Cl)cc2)CCC3)C1 (stereo not drawn) [Compound 87, N-[3-[(4-chlorophenyl)carbamoyl]-5,6-dihydro-4H-cyclopenta[b]thiophen-2-yl]-4-sulfamoyl-morpholine-2-carboxamide]",6.75,–,–
